Test results reported in paper PMC6147235 (iScience, 2018).

Test system: WT OPS, G51A, T17M, P171Q, P180A
Assay: Subcellular localization
Format: cell-based, human
Settings: 10 µM all-trans retinal, P180A in COS-7 cells

CC1=C(/C=C/C(C)=C/C=C/C(C)=C/C=O)C(C)(C)CCC1 [all-trans retinal]
effect on subcellular localization (PCC and RetP1/1D4): no effect
